Laboratory results from ChEMBL document CHEMBL1121374, “Analgesic narcotic antagonists. 4. 7-Methyl-N-(cycloalkylmethyl)-3-hydroxymorphinan-6-ones and -isomorphinan-6-ones” (1980).

Experiments:
Type in all cases: functional
[1] = tested on: Rattus norvegicus; assay: Antagonist activity in rat tail flick assay by intraperitoneal administration
[2] = species: Rattus norvegicus; assay: Ratio of agonist potency to antagonist potency was determined
[3] = tested on: Mus musculus; assay: Compound was tested for analgesia in mouse writhing assay by subcutaneous administration
[4] = tested on: Rattus norvegicus; assay: Antagonist activity in rat tail flick assay by subcutaneous administration
[5] = Rattus norvegicus, Tail, ip, read-out: ED50
[6] = Mus musculus, sc, read-out: ED50
[7] = Rattus norvegicus, Tail, sc, read-out: ED50

Compound | ED50 [1, 5] | Ratio [2] | ED50 [3, 6] | ED50 [3] | further results
Oc1ccc2c(c1)[C@@]13CCCC[C@@]1(O)[C@@H](C2)N(CC1CCC1)CC3 [BUTORPHANOL] | 2 µmol/kg | 0.17 | 0.34 µmol/kg | – | –
CC[C@H]1[C@H](C)C(=O)CC23CCN(CC4CC4)C(Cc4ccc(OC)cc42)[C@H]13.Cl (stereo partly specified) | 15.7 µmol/kg | 0.51 | 8.04 µmol/kg | – | –
C[C@@H]1C[C@@H]2C3Cc4ccc(O)cc4C2(CCN3CC2CCC2)CC1=O (stereo in doubt; 13T a) | – | – | – | 0.93 µM/kg | ED50 [1]: >24 µM/kg
CC(C)=CCN1CC[C@]2(C)c3cc(O)ccc3C[C@H]1[C@H]2C [(+)-PENTAZOCINE] | 36.4 µmol/kg | 0.36 | 12.9 µmol/kg | – | –
CC[C@H]1[C@H](C)C(=O)CC23CCN(CC4CC4)C(Cc4ccc(O)cc42)[C@H]13 (stereo partly specified) | 2.23 µmol/kg | – | > 25 µmol/kg | – | –
C[C@@H]1C[C@@H]2C3Cc4ccc(O)cc4C2(CCN3CC2CCC2)CC1=O (stereo in doubt; 13T) | 13.8 µmol/kg | 0.2 | – | 2.6 µM/kg | –
COc1ccc2c(c1)C13CCN(CC4CCC4)C(C2)[C@H]1[C@H](C)[C@@H](C)C(=O)C3 (stereo partly specified) | > 25 µmol/kg | – | > 25 µmol/kg | – | –
COc1ccc2c(c1)C13CCN(C)C(C2)[C@H]1C[C@@H](C)C(=O)C3 (stereo in doubt; 6T a) | – | – | – | 15.7 µM/kg | –
COc1ccc2c3c1O[C@H]1C(=O)CC[C@H]4[C@@H](C2)N(C)CC[C@]314 [HYDROCODONE] | – | – | 2.36 µmol/kg | – | ED50 [4, 7]: 5.2 µmol/kg
C[C@H]1C[C@H]2C3Cc4ccc(O)cc4C2(CCN3CC2CC2)CC1=O (stereo in doubt; 12C) | 7.4 µmol/kg | 0.44 | 3.28 µmol/kg | – | –
C[C@H]1C[C@H]2C3Cc4ccc(O)cc4C2(CCN3C)CC1=O (stereo in doubt; 7C a) | – | – | 0.39 µmol/kg | – | ED50 [4]: 1.82 µM/kg
CC[C@H]1[C@H](C)C(=O)CC23CCN(C)C(Cc4ccc(OC)cc42)[C@H]13 (stereo partly specified) | – | – | 0.49 µmol/kg | – | ED50 [4, 7]: 2.75 µmol/kg
COc1ccc2c(c1)C13CCN(CC4CC4)C(C2)[C@@H]1C[C@H](C)C(=O)C3.Cl (stereo partly specified) | – | 0.04 | – | 1.6 µM/kg | ED50 [1]: 42.6 µM/kg
CN1CC[C@]23c4c5ccc(O)c4O[C@H]2C(=O)CC[C@H]3[C@H]1C5 [HYDROMORPHONE] | – | – | – | – | ED50 [4, 7]: 1.34 µmol/kg
C[C@H]1C[C@H]2C3Cc4ccc(O)cc4C2(CCN3CC2CC2)CC1=O (stereo in doubt; 12C a) | – | 0.17 | – | 2.4 µM/kg | ED50 [1]: 14.4 µM/kg
C[C@H]1[C@H](C)C(=O)CC23CCN(C)C(Cc4ccc(O)cc42)[C@H]13 (stereo partly specified) | – | – | 0.4 µmol/kg | – | ED50 [4, 7]: 12.4 µmol/kg
C[C@H]1C[C@H]2C3Cc4ccc(O)cc4C2(CCN3CC2CCC2)CC1=O (stereo in doubt; 13C a) | > 30 µmol/kg | – | – | 0.35 µM/kg | –
COc1ccc2c(c1)C13CCN(CC4CCC4)C(C2)[C@@H]1[C@@H](C)[C@H](C)C(=O)C3 (stereo partly specified) | > 25 µmol/kg | – | 15.8 µmol/kg | – | –
COc1ccc2c3c1O[C@H]1[C@@H](O)C=C[C@H]4[C@@H](C2)N(C)CC[C@@]341 [CODEINE] | – | – | 10.2 µmol/kg | – | ED50 [4, 7]: 75 µmol/kg
C[C@H]1[C@H](C)C(=O)CC23CCN(CC4CC4)C(Cc4ccc(O)cc42)[C@H]13 (stereo partly specified) | 0.35 µmol/kg | 65 | 23 µmol/kg | – | –
COc1ccc2c(c1)C13CCN(C)C(C2)[C@@H]1C[C@H](C)C(=O)C3 (stereo in doubt; 6C) | – | – | – | 1.72 µM/kg | ED50 [4, 7]: 2.32 µmol/kg
CC[C@@H]1[C@@H](C)C(=O)CC23CCN(CC4CCC4)C(Cc4ccc(O)cc42)[C@@H]13 (stereo partly specified) | > 25 µmol/kg | – | > 25 µmol/kg | – | –
CC[C@@H]1[C@@H](C)C(=O)CC23CCN(CC4CCC4)C(Cc4ccc(OC)cc42)[C@@H]13 (stereo partly specified) | > 25 µmol/kg | – | > 25 µmol/kg | – | –
C[C@H]1C[C@H]2C3Cc4ccc(O)cc4C2(CCN3CC2CCC2)CC1=O (stereo in doubt; 13C) | – | – | – | 0.047 µM/kg | –
CC[C@H]1[C@H](C)C(=O)CC23CCN(CC4CCC4)C(Cc4ccc(O)cc42)[C@H]13 (stereo partly specified) | 4.84 µmol/kg | 1.7 | 8.19 µmol/kg | – | –
COc1ccc2c(c1)C13CCN(C)C(C2)[C@H]1C[C@@H](C)C(=O)C3 (stereo in doubt; 6T) | – | – | – | 5.54 µM/kg | ED50 [4, 7]: > 70 µmol/kg
COc1ccc2c(c1)C13CCN(CC4CCC4)C(C2)[C@@H]1C[C@H](C)C(=O)C3 (stereo partly specified) | – | – | – | 0.58 µM/kg | –

Compound | ED50 [1, 5] | Ratio [2] | ED50 [3, 6] | ED50 [3] | further results
C[C@H]1[C@H]2Cc3ccc(O)cc3[C@]1(C)CCN2CC1CC1 [CYCLAZOCINE] | 0.81 µmol/kg | 0.5 | 0.41 µmol/kg | – | –
C[C@H]1C[C@H]2C3Cc4ccc(O)cc4C2(CCN3C)CC1=O (stereo in doubt; 7C) | – | – | – | 0.52 µM/kg | ED50 [4]: 70 µM/kg
C=CCN1CC[C@]23c4c5ccc(O)c4O[C@H]2[C@@H](O)C=C[C@H]3[C@H]1C5 [NALORPHINE] | 2.47 µmol/kg | 1.42 | 3.51 µmol/kg | – | –
CC[C@@H]1[C@@H](C)C(=O)CC23CCN(C)C(Cc4ccc(O)cc42)[C@@H]13 (stereo partly specified) | – | – | 7.53 µmol/kg | – | ED50 [4, 7]: 7.45 µmol/kg
CN1CC[C@]23c4c5ccc(O)c4O[C@H]2[C@@H](O)C=C[C@H]3[C@H]1C5 [MORPHINE] | – | – | – | – | ED50 [4, 7]: 19.3 µmol/kg
CC[C@@H]1[C@@H](C)C(=O)CC23CCN(CC4CC4)C(Cc4ccc(OC)cc42)[C@@H]13 (stereo partly specified) | > 25 µmol/kg | – | > 25 µmol/kg | – | –
COc1ccc2c(c1)C13CCN(CC4CCC4)C(C2)[C@H]1C[C@@H](C)C(=O)C3.Cl (stereo partly specified) | > 38 µmol/kg | – | – | 7.31 µM/kg | –
C[C@@H]1[C@@H](C)C(=O)CC23CCN(CC4CCC4)C(Cc4ccc(O)cc42)[C@@H]13 (stereo partly specified) | > 25 µmol/kg | – | 0.79 µmol/kg | – | –
C[C@@H]1C[C@@H]2C3Cc4ccc(O)cc4C2(CCN3C)CC1=O (stereo in doubt; 7T) | – | – | 0.75 µmol/kg | – | ED50 [4, 7]: 1.33 µmol/kg
COc1ccc2c(c1)C13CCN(CC4CC4)C(C2)[C@@H]1C[C@H](C)C(=O)C3 (stereo partly specified) | – | 0.04 | – | 0.66 µM/kg | ED50 [1]: 14.9 µM/kg
C[C@@H]1[C@@H](C)C(=O)CC23CCN(C)C(Cc4ccc(O)cc42)[C@@H]13 (stereo partly specified) | – | – | 0.58 µmol/kg | – | ED50 [4, 7]: 0.68 µmol/kg
COc1ccc2c(c1)C13CCN(CC4CCC4)C(C2)[C@H]1C[C@@H](C)C(=O)C3 (stereo partly specified) | – | – | – | 20.3 µM/kg | –
COc1ccc2c(c1)C13CCN(CC4CC4)C(C2)[C@@H]1[C@@H](C)[C@H](C)C(=O)C3.Cl (stereo partly specified) | 12.1 µmol/kg | 0.22 | 2.64 µmol/kg | – | –
COc1ccc2c(c1)C13CCN(CC4CC4)C(C2)[C@H]1[C@H](C)[C@@H](C)C(=O)C3 (stereo partly specified) | > 26 µmol/kg | – | > 26 µmol/kg | – | –
COc1ccc2c(c1)C13CCN(C)C(C2)[C@@H]1[C@@H](C)[C@H](C)C(=O)C3 (stereo partly specified) | – | – | 2.16 µmol/kg | – | ED50 [4, 7]: 17.9 µmol/kg
COc1ccc2c(c1)C13CCN(CC4CCC4)C(C2)[C@@H]1C[C@H](C)C(=O)C3.Cl (stereo partly specified) | > 25 µmol/kg | – | – | 3.58 µM/kg | –
C[C@@H]1[C@@H](C)C(=O)CC23CCN(CC4CC4)C(Cc4ccc(O)cc42)[C@@H]13 (stereo partly specified) | 1.02 µmol/kg | 4.4 | 4.5 µmol/kg | – | –
C[C@@H]1C[C@@H]2C3Cc4ccc(O)cc4C2(CCN3C)CC1=O (stereo in doubt; 7T a) | – | – | – | 0.91 µM/kg | ED50 [4]: 1.09 µM/kg
COc1ccc2c(c1)C13CCN(CC4CC4)C(C2)[C@H]1C[C@@H](C)C(=O)C3.Cl (stereo partly specified) | – | – | – | >40 µM/kg | ED50 [1]: 3.19 µM/kg
CC[C@H]1[C@H](C)C(=O)CC23CCN(CC4CCC4)C(Cc4ccc(OC)cc42)[C@H]13 (stereo partly specified) | > 24 µmol/kg | – | 18.7 µmol/kg | – | –
C[C@@H]1C[C@@H]2C3Cc4ccc(O)cc4C2(CCN3CC2CC2)CC1=O (stereo in doubt; 12T) | 2.24 µmol/kg | 4 | 8.9 µmol/kg | – | –
C[C@H]1[C@H](C)C(=O)CC23CCN(CC4CCC4)C(Cc4ccc(O)cc42)[C@H]13 (stereo partly specified) | 5.66 µmol/kg | 0.4 | 2.21 µmol/kg | – | –
CC[C@@H]1[C@@H](C)C(=O)CC23CCN(CC4CC4)C(Cc4ccc(O)cc42)[C@@H]13 (stereo partly specified) | > 25 µmol/kg | – | > 25 µmol/kg | – | –
COc1ccc2c(c1)C13CCN(C)C(C2)[C@@H]1C[C@H](C)C(=O)C3 (stereo in doubt; 6C a) | – | – | – | 0.5 µM/kg | ED50 [4]: 1.6 µM/kg
COc1ccc2c(c1)C13CCN(CC4CC4)C(C2)[C@H]1C[C@@H](C)C(=O)C3 (stereo partly specified) | 3.6 µmol/kg | – | > 25 µmol/kg | – | –
CC[C@H]1[C@H](C)C(=O)CC23CCN(C)C(Cc4ccc(O)cc42)[C@H]13 (stereo partly specified) | – | – | 0.14 µmol/kg | – | ED50 [4, 7]: 1.5 µmol/kg
